Assays:
[1] = system: L. donovani LV82 promastigotes; experiment: Promastigote assay (proliferation); assay type: cell-based; conditions: Leishmania donovani, n ≥ 3 independent experiments
Description: Promastigote assay. The effect of the compounds on the proliferation of Leishmania donovani LV82 strain parasites (MHOM/ET/67:LV82) was carried out as outlined by Feng et al.^26

[2] = system: J774 macrophages; experiment: J774 macrophage assay; assay type: cell-based; conditions: Mus musculus; J774 murine macrophages; n ≥ 3 independent experiments
Description: J774 macrophage assay. This assay was performed as reported by Zhu et al.^27

[3] = system: intracellular L. donovani LV82 parasites; experiment: L. donovani-infected macrophage assay (high content imaging); assay type: cell-based, Leishmania donovani; conditions: for effect on intracellular parasites: at non-toxic concentrations
Description: (§1) Evaluation in an infected macrophage model. Four of the compounds described above were selected for evaluation in an L. donovani infected macrophage model. […] An image-based assay employing murine peritoneal macrophages as host cells and DAPI as an indicator that was based on assays reported previously in the literature^23-24 was used to evaluate these compounds.
(§2) L. donovani-infected macrophage assay. The efficacy of selected target compounds against intracellular L. donovani LV82 parasites was conducted using murine peritoneal macrophages as the host cell in a high content imaging assay essentially as described by Joice et al.^24 and Abdelhameed et al.^28, with the following modifications. The density of peritoneal macrophages was 5×10^4 host cells/well, with the parasite/macrophage ratio remaining at 5:1. The concentration of 4,6-diamidino-2-phenylindole (DAPI) employed for nuclear staining was 4 μM. […] For the quantification of the infection, macrophage nuclei were selected first by DAPI staining with area larger than 30 μm^2. The cytoplasm was selected consequentially based on the nuclei with the digital phase contrast (DPC) channel. Parasites in the cytoplasm were selected based on relative intensity. Parasites per macrophage in each well were exported to a CSV file to generate dose responses, with data analysis performed as described by Joice et al.^24

[4] = biological target: L. donovani CYP5122A1 (Leishmania donovani, UniProt Q2XQE3); experiment: Leishmania CYP5122A1 inhibition assay; assay type: biochemical; conditions: comparator 18a
Description: (§3) Leishmania CYP51 and CYP5122A1 assays. The cloning, expression, purification, and inhibition assays performed with L. donovani CYP51 and CYP5122A1 were conducted as described in Wang et al.^19

[5] = system: murine peritoneal macrophages; experiment: Host cell toxicity in the infected macrophage assay; assay type: cell-based; conditions: for host cell toxicity: 25 μM and below; for toxicity to host cells: 50 μM
Description: as §1, §2

[6] = biological target: L. donovani CYP51 (Leishmania donovani, UniProt A0A3S7WRS7); experiment: Leishmania CYP51 inhibition assay; assay type: biochemical; conditions: comparator 18a
Description: as §3

[7] = murine peritoneal macrophages as host cells, n=3 determinations

Chain of L. donovani CYP5122A1 (Q2XQE3 entry or part of it): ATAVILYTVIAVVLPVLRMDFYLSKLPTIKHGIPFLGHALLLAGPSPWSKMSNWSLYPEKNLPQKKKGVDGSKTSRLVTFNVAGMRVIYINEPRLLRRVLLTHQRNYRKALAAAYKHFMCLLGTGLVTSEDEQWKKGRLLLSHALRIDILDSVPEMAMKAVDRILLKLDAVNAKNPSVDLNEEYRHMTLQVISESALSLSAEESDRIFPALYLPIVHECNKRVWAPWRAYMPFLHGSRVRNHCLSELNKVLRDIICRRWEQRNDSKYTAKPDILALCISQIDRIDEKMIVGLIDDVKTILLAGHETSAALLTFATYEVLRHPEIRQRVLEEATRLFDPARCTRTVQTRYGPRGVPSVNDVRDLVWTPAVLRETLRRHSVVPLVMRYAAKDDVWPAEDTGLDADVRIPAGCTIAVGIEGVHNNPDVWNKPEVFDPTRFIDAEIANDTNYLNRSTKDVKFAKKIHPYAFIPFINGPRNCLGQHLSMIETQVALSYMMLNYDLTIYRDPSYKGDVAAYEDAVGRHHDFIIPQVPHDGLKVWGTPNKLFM
Chain of L. donovani CYP51 (A0A3S7WRS7 entry or part of it): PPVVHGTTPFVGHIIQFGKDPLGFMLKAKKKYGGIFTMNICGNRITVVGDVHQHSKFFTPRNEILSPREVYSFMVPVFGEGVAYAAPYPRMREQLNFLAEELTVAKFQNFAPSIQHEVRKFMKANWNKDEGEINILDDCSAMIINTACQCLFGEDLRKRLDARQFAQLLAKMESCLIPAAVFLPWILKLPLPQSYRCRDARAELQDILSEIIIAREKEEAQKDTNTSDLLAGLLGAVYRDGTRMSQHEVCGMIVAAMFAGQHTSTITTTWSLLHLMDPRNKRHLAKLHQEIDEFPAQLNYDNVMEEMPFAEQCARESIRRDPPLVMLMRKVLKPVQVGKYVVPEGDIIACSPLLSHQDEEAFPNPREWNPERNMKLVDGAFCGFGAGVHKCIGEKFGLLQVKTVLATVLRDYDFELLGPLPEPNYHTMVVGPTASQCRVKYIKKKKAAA

| SMILES | EC50 [1] | other results |
| --- | --- | --- |
| Cc1cc(C)cc(NC(=O)N2CCN(Cc3ccncc3)CC2)c1 [Compound 4a, N-(3,5-dimethylphenyl)-4-(pyridin-4-ylmethyl)piperazine-1-carboxamide] | > 50 µM | – |
| O=C(Nc1ccccc1)N1CCN(Cc2ccncc2)CC1 [Compound 4b, N-phenyl-4-(pyridin-4-ylmethyl)piperazine-1-carboxamide] | > 100 µM | – |
| Cc1ccccc1NC(=O)N1CCN(Cc2ccncc2)CC1 [Compound 4c, 4-(Pyridin-4-ylmethyl)-N-(o-tolyl)piperazine-1-carboxamide] | > 100 µM | – |
| Cc1cccc(NC(=O)N2CCN(Cc3ccncc3)CC2)c1 [Compound 4d, 4-(Pyridin-4-ylmethyl)-N-(m-tolyl)piperazine-1-carboxamide] | > 100 µM | – |
| Cc1ccc(NC(=O)N2CCN(Cc3ccncc3)CC2)cc1 [Compound 4e, 4-(Pyridin-4-ylmethyl)-N-(p-tolyl)piperazine-1-carboxamide] | > 100 µM | – |
| Cc1cc(NC(=O)N2CCN(Cc3ccncc3)CC2)cc(C)c1C [Compound 4f, 4-(pyridin-4-ylmethyl)-N-(3,4,5-trimethylphenyl)piperazine-1-carboxamide] | > 50 µM | – |
| CC(C)(C)c1cccc(NC(=O)N2CCN(Cc3ccncc3)CC2)c1 [Compound 4g, N-(3-(tert-butyl)phenyl)-4-(pyridin-4-ylmethyl)piperazine-1-carboxamide] | – | EC50 [2]: > 50 µM; effect on intracellular parasites [3]: little effect |
| COc1cccc(NC(=O)N2CCN(Cc3ccncc3)CC2)c1 [Compound 4i, N-(3-methoxyphenyl)-4-(pyridin-4-ylmethyl)piperazine-1-carboxamide] | > 100 µM | – |
| COc1ccc(NC(=O)N2CCN(Cc3ccncc3)CC2)cc1 [Compound 4j, N-(4-methoxyphenyl)-4-(pyridin-4-ylmethyl)piperazine-1-carboxamide] | > 100 µM | – |
| COc1cc(NC(=O)N2CCN(Cc3ccncc3)CC2)cc(OC)c1 [Compound 4k, N-(3,5-dimethoxyphenyl)-4-(pyridin-4-ylmethyl)piperazine-1-carboxamide] | > 100 µM | – |
| CC(C)Oc1cccc(NC(=O)N2CCN(Cc3ccncc3)CC2)c1 [Compound 4l, N-(3-isopropoxyphenyl)-4-(pyridin-4-ylmethyl)piperazine-1-carboxamide] | > 50 µM | – |
| O=C(Nc1ccccc1Cl)N1CCN(Cc2ccncc2)CC1 [Compound 4m, N-(2-chlorophenyl)-4-(pyridin-4-ylmethyl)piperazine-1-carboxamide] | > 100 µM | – |
| O=C(Nc1cccc(Cl)c1)N1CCN(Cc2ccncc2)CC1 [Compound 4n, N-(3-chlorophenyl)-4-(pyridin-4-ylmethyl)piperazine-1-carboxamide] | > 100 µM | – |
| O=C(Nc1ccc(Cl)cc1)N1CCN(Cc2ccncc2)CC1 [Compound 4o, N-(4-chlorophenyl)-4-(pyridin-4-ylmethyl)piperazine-1-carboxamide] | > 100 µM | – |
| O=C(Nc1cccc(F)c1)N1CCN(Cc2ccncc2)CC1 [Compound 4q, N-(3-fluorophenyl)-4-(pyridin-4-ylmethyl)piperazine-1-carboxamide] | > 100 µM | – |
| O=C(Nc1ccc(F)cc1)N1CCN(Cc2ccncc2)CC1 [Compound 4r, N-(4-fluorophenyl)-4-(pyridin-4-ylmethyl)piperazine-1-carboxamide] | > 100 µM | – |
| O=C(Nc1cc(F)cc(F)c1)N1CCN(Cc2ccncc2)CC1 [Compound 4s, N-(3,5-difluorophenyl)-4-(pyridin-4-ylmethyl)piperazine-1-carboxamide] | > 100 µM | – |
| O=C(Nc1cccc(C(F)(F)F)c1)N1CCN(Cc2ccncc2)CC1 [Compound 4t, 4-(Pyridin-4-ylmethyl)-N-(3-(trifluoromethyl)phenyl)piperazine-1-carboxamide] | 48 µM | – |
| O=C(Nc1ccc(C(F)(F)F)cc1)N1CCN(Cc2ccncc2)CC1 [Compound 4u, 4-(Pyridin-4-ylmethyl)-N-(4-(trifluoromethyl)phenyl)piperazine-1-carboxamide] | > 50 µM | – |
| O=C(Nc1cc(C(F)(F)F)cc(C(F)(F)F)c1)N1CCN(Cc2ccncc2)CC1 [Compound 4v, N-(3,5-bis(trifluoromethyl)phenyl)-4-(pyridin-4-ylmethyl)piperazine-1-carboxamide] | ~10 µM | effect on intracellular parasites [3]: little effect |
| O=C(Nc1ccc(OCc2cc(C(F)(F)F)cc(C(F)(F)F)c2)cc1)N1CCN(CCc2ccncc2)CC1 [Compound 18e, N-(4-((3,5-bis(trifluoromethyl)benzyl)oxy)phenyl)-4-(2-(pyridin-4-yl)ethyl)piperazine-1-carboxamide] | – | increase in inhibitory potency against CYP5122A1 compared to hit compound 18a [4]: 3.4 fold; EC50 ([3]; Leishmania donovani, Peritoneal macrophage, murine peritoneal macrophages as host cells, n=3 determinations, read-out: EC50 against intracellular L. donovani): 4 µM; EC50 against intracellular L. donovani [3, 7]: low micromolar range; host cell toxicity [5]: lower; toxicity to host cells [5]: exhibited toxicity to host cells |
| COc1cc(COc2ccc(NC(=O)N3CCN(CCc4ccncc4)CC3)cc2)cc(OC)c1 [Compound 18g, N-(4-((3,5-dimethoxybenzyl)oxy)phenyl)-4-(2-(pyridin-4-yl)ethyl)piperazine-1-carboxamide] | – | decrease in activity against CYP51 compared to hit compound 18a [6]: 1.8 fold; decrease in potency against CYP5122A1 compared to hit compound 18a [4]: 3.0 fold |
| CC(C)(C)c1cc(COc2ccc(NC(=O)N3CCN(CCc4ccncc4)CC3)cc2)cc(C(C)(C)C)c1 [Compound 18i, N-(4-((3,5-di-tert-butylbenzyl)oxy)phenyl)-4-(2-(pyridin-4-yl)ethyl)piperazine-1-carboxamide] | – | increase in inhibitory potency against CYP5122A1 compared to hit compound 18a [4]: 2.2 fold; EC50 against intracellular L. donovani [3, 7]: low micromolar range; host cell toxicity [5]: lower; toxicity to host cells [5]: exhibited toxicity to host cells |
| COc1ccc(CCN2CCN(C(=O)Nc3ccc(OCc4cc(C(F)(F)F)cc(C(F)(F)F)c4)cc3)CC2)cc1 [Compound 18x, N-(4-((3,5-bis(trifluoromethyl)benzyl)oxy)phenyl)-4-(4-methoxyphenethyl)piperazine-1-carboxamide] | – | EC50 [2]: 8.3 µM |

Further lines, with some results ahead:

| EC50 [1] | SMILES | other results |
| --- | --- | --- |
| > 50 µM | O=C(Nc1ccc(OCc2cc(C(F)(F)F)cc(C(F)(F)F)c2)cc1)N1CCN(CCCc2ccccc2)CC1 [Compound 18ab, N-(4-((3,5-bis(trifluoromethyl)benzyl)oxy)phenyl)-4-(3-phenylpropyl)piperazine-1-carboxamide] | – |
| 30 µM | O=C(Nc1ccc(OCc2cc(C(F)(F)F)cc(C(F)(F)F)c2)cc1)N1CCN(CCn2cccn2)CC1 [Compound 18o, 4-(2-(1H-pyrazol-1-yl)ethyl)-N-(4-((3,5-bis(trifluoromethyl)benzyl)oxy)phenyl)piperazine-1-carboxamide] | – |
| > 50 µM | O=C(Nc1ccc(OCc2cc(C(F)(F)F)cc(C(F)(F)F)c2)cc1)N1CCN(CCn2cncn2)CC1 [Compound 18q, 4-(2-(1H-1,2,4-triazol-1-yl)ethyl)-N-(4-((3,5-bis(trifluoromethyl)benzyl)oxy)phenyl)piperazine-1-carboxamide] | EC50 [2]: > 50 µM |
| > 12.5 µM | O=C(Nc1ccc(OCc2cc(C(F)(F)F)cc(C(F)(F)F)c2)cc1)N1CCN(CCc2ccccc2)CC1 [Compound 18r, N-(4-((3,5-bis(trifluoromethyl)benzyl)oxy)phenyl)-4-phenethylpiperazine-1-carboxamide] | – |
